What all share (type): biochemical
For assay [1], the target named is T1, BTK-WT (Homo sapiens, UniProt Q06187).
T1 construct: purified from insect cells as a full-length construct containing an N-terminal 6X-His tag; His6 (N); made in house; host or cells: insect cells (baculovirus Sf21 in Method B)
Put plainly: Btk in vitro inhibitory activity (one of Method A TR-FRET, Method B electrophoretic mobility shift, Method C radiometric filter binding). As to conditions: read-out: IC50 BTK-WT. A general note: A gel shift assay detects complexes by their altered migration in electrophoresis.

Assay [2] deals with EGFR (Homo sapiens, UniProt P00533). Kind of assay: Inhibition of a panel of kinases, in vitro HotSpot kinase assay: EGFR. The protocol:
(§1) The degree of inhibition of a panel of kinases is determined using the in vitro HotSpot kinase assay (purified enzymes, ^33P-ATP, an appropriate substrate and 1 μM ATP).

In assay [3] the target is SRC (Homo sapiens, UniProt P12931). Kind of assay: Inhibition of a panel of kinases, in vitro HotSpot kinase assay: SRC. On the procedure: as §1
Chain of SRC (P12931 whole entry): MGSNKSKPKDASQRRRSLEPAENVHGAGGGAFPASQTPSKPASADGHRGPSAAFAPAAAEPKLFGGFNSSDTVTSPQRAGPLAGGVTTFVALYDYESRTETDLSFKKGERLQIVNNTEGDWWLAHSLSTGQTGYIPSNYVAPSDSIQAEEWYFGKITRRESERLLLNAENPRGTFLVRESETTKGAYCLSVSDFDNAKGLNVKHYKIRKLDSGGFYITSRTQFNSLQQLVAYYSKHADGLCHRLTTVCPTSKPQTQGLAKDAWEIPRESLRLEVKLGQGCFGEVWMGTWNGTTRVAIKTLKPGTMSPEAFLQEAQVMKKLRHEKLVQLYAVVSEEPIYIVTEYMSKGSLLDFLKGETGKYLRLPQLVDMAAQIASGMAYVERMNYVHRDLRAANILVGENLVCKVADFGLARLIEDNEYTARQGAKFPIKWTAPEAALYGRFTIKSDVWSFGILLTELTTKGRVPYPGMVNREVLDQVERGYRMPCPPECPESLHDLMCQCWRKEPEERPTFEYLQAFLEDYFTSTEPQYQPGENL
Assay [4] concerns the target T2, TEC (Homo sapiens, UniProt P42680).
T2 sequence (P42680 1-631): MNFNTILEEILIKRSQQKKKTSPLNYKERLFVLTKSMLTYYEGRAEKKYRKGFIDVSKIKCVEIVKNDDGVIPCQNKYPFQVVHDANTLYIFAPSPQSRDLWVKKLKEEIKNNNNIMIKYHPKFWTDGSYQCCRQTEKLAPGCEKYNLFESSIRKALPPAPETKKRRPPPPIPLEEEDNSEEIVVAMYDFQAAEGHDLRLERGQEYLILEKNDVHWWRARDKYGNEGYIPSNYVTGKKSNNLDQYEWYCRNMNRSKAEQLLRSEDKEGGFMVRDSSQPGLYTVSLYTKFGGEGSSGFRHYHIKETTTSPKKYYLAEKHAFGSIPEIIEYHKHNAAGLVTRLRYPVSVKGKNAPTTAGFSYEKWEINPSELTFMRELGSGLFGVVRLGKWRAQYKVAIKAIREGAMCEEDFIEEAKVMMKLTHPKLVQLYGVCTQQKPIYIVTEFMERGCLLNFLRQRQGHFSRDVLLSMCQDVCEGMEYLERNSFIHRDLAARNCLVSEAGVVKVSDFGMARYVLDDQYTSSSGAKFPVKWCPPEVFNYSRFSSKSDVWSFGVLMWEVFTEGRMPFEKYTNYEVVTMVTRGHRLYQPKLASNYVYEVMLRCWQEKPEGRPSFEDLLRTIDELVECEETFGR
Put plainly: Inhibition of a panel of kinases, in vitro HotSpot kinase assay: TEC. On the procedure: as §1

[5] abbreviates: Table 13, A compounds, 1 μM ATP.

Each structure is given as a SMILES string. Where two headings read alike, the source gives them in different places. A value given as a limit tells only on which side of the number the result lay.

T1 sequence (Q06187 whole entry): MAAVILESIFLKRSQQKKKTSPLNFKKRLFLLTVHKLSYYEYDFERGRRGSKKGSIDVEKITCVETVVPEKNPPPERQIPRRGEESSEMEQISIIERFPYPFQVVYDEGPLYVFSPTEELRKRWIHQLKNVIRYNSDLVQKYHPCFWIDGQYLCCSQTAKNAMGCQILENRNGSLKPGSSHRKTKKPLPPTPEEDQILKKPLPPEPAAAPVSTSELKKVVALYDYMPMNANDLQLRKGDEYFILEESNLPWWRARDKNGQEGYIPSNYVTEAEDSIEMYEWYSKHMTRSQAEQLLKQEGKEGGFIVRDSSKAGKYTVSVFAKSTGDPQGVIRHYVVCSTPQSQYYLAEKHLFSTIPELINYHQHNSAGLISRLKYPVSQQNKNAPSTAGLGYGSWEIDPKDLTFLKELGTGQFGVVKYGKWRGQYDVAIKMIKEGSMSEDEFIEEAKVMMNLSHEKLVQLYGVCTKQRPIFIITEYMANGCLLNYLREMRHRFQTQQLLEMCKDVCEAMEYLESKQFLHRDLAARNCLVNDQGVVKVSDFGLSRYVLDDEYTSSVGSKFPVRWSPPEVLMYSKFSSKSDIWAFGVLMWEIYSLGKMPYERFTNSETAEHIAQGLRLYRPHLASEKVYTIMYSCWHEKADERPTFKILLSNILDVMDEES
Chain of EGFR (P00533 25-1210): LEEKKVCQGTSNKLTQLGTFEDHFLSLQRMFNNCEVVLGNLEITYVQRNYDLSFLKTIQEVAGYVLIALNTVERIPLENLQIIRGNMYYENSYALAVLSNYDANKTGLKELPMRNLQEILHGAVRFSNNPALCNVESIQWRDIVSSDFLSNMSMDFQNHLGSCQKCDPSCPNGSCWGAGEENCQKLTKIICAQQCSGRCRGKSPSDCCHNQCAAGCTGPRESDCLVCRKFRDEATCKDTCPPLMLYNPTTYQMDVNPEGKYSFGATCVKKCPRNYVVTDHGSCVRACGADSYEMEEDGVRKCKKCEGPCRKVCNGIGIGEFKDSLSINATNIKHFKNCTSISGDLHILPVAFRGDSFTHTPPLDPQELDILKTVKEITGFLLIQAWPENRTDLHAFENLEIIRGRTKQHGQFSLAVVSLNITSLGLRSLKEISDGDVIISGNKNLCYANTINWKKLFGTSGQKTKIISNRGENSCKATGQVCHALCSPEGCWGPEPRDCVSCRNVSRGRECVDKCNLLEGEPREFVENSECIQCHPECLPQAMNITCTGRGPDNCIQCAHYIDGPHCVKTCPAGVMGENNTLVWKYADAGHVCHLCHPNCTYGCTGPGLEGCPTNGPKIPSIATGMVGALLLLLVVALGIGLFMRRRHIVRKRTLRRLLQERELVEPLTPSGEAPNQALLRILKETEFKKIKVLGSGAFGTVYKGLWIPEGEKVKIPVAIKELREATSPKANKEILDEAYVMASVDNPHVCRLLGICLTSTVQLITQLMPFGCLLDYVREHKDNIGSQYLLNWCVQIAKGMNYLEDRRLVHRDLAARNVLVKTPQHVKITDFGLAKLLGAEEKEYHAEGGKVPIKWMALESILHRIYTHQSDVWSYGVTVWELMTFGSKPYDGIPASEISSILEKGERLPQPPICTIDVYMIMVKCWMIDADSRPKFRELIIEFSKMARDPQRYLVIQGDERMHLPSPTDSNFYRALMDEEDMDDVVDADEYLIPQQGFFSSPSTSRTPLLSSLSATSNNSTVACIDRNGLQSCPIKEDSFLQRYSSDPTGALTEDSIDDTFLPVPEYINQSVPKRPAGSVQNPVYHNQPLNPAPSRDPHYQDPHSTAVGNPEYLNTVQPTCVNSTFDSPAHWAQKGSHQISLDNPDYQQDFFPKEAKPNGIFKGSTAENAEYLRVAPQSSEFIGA

Turning to `C[C@@H]1[C@H](NC(=O)c2ccc3oc(C4CC4)nc3c2)CCCN1c1cnc(C(N)=O)c(Nc2cnn(C)c2)n1` [Example E-139, N-((2R,3R)-1-(5-carbamoyl-6-((1-methyl-1H-pyrazol-4-yl)amino)pyrazin-2-yl)-2-methylpiperidin-3-yl)-2-cyclopropylbenzo[d] oxazole-5-carboxamide], the half-maximal inhibitory concentration (IC50) in assay [1] (E compounds, Table 17) was at most 10 nM; in assay [2] (E compounds, Table 17), 100 to 1000 nM; in assay [3] (E compounds, Table 17), 10 to 100 nM; in assay [4] (E compounds, Table 17), at most 10 nM.

Regarding `C[C@@H]1[C@H](NC(=O)c2ccc(C3CC3)cc2F)CCCN1c1cnc(C(N)=O)c(Nc2ccc(S(=O)(=O)N3CCCC3)cc2)n1` [Example A-175, 5-[(2R,3R)-3-(4-cyclopropyl-2-fluorobenzamido)-2-methylpiperidin-1-yl]-3-{[4-(pyrrolidine-1-sulfonyl)phenyl]amino}pyr-azine-2-carboxamide], the IC50 was at most 10 nM in assay [1] (Table 13, A compounds); 1000 to 10000 nM in assay [2] (setting [5]); above 10000 nM in assay [3] (setting [5]); 100 to 1000 nM in assay [4] (setting [5]).

In the case of `C[C@@H]1[C@H](NC(=O)c2ccc(C3CC3)cc2F)CCCN1c1cnc(C(N)=O)c(Nc2cnn(C)c2)c1` [Example A-127, 5-[(2R,3R)-3-(4-cyclopropyl-2-fluorobenzamido)-2-methylpiperidin-1-yl]-3-[(1-methyl-1H-pyrazol-4-yl)amino]pyridine-2-carboxamide], the half-maximal inhibitory concentration (IC50) lay in the range of 10 to 100 nM in assay [1] (Table 13, A compounds); 1000 to 10000 nM in assay [2] (setting [5]); 100 to 1000 nM in assay [3] (setting [5]); 100 to 1000 nM in assay [4] (setting [5]).

Regarding `CCC(O)(CC)c1ccc(C(=O)N[C@@H]2CCCN(c3cnc(C(N)=O)c(Nc4cnn(C)c4)n3)[C@@H]2C)cc1` [Example E-151, 5-((2R,3R)-3-(4-(3-hydroxypentan-3-yl)benzamido)-2-methylpiperidin-1-yl)-3-((1-methyl-1H-pyrazol-4-yl)amino)pyrazine-2-carboxamide], the IC50 in assay [1] (E compounds, Table 17) was at most 10 nM; in assay [2] (E compounds, Table 17), 100 to 1000 nM; in assay [3] (E compounds, Table 17) it was 10 to 100 nM; in assay [4] (E compounds, Table 17) it was at most 10 nM.

Take `Cc1cc(Nc2nc(N3CCC[C@@H](n4ccc5cc(C6CC6)ccc5c4=O)C3)cnc2C(N)=O)sn1` [Example A-107, 5-[(3R)-3-(6-cyclopropyl-1-oxo-1,2-dihydroisoquinolin-2-yl)piperidin-1-yl]-3-[(3-methyl-1,2-thiazol-5-yl)amino]pyrazine-2-carboxamide]: the IC50 is at most 10 nM in assay [1] (Table 13, A compounds); above 10000 nM in assay [2] (setting [5]); above 10000 nM in assay [3] (setting [5]); above 10000 nM in assay [4] (setting [5]).

Take `C[C@@H]1[C@H](NC(=O)c2cccc(C(C)(C)O)c2)CCCN1c1cnc(C(N)=O)c(Nc2cnn(C)c2)n1` [Example E-145, 5-((2R,3R)-3-(3-(2-hydroxypropan-2-yl)benzamido)-2-methylpiperidin-1-yl)-3-((1-methyl-1H-pyrazol-4-yl)amino)pyrazine-2-carboxamide]: the 50% inhibitory concentration (IC50) in assay [1] (E compounds, Table 17) is at most 10 nM; in assay [2] (E compounds, Table 17), 100 to 1000 nM; in assay [3] (E compounds, Table 17) it was 10 to 100 nM; in assay [4] (E compounds, Table 17) it was at most 10 nM.

In the case of `C[C@@H]1[C@H](NC(=O)c2ccc(C(C)(C)O)cc2)CCCN1c1cnc(C(N)=O)c(Nc2ccc(C3(C)CCN(C4CC4)CC3)cc2)n1` [Example E-147, 3-((4-(1-cyclopropyl-4-methylpiperidin-4-yl)phenyl)amino)-5-((2R,3R)-3-(4-(2-hydroxypropan-2-yl)benzamido)-2-methylpiperidin-1-yl)pyrazine-2-carboxamide], the half-inhibitory concentration (IC50) is at most 10 nM in assay [1] (E compounds, Table 17); 100 to 1000 nM in assay [2] (E compounds, Table 17); at most 10 nM in assay [3] (E compounds, Table 17); at most 10 nM in assay [4] (E compounds, Table 17).

`C[C@@H]1[C@H](NC(=O)c2ccc(C3CC3)cc2F)CCCN1c1cnc(C(N)=O)c(Nc2nc3c(s2)CN(C)CC3)n1` [Example A-108, 5-[(2R,3R)-3-(4-cyclopropyl-2-fluorobenzamido)-2-methylpiperidin-1-yl]-3-({5-methyl-4H,5H,6H,7H-[1,3]thiazolo[5,4-c]pyridin-2-yl}amino)pyrazine-2-carboxamide]: the IC50 is 100 to 1000 nM in assay [1] (Table 13, A compounds); above 10000 nM in assay [2] (setting [5]); above 10000 nM in assay [3] (setting [5]); 100 to 1000 nM in assay [4] (setting [5]).

As for `C[C@@H]1[C@H](NC(=O)c2noc(C(C)(C)C)n2)CCCN1c1cnc(C(N)=O)c(Nc2cnn(C)c2)n1` [Example E-149, 5-(tert-butyl)-N-((2R,3R)-1-(5-carbamoyl-6-((1-methyl-1H-pyrazol-4-yl)amino)pyrazin-2-yl)-2-methylpiperidin-3-yl)-1,2,4-oxadiazole-3-carboxamide], the IC50 in assay [1] (E compounds, Table 17) was 100 to 1000 nM; in assay [2] (E compounds, Table 17) it was 1000 to 10000 nM; in assay [3] (E compounds, Table 17), 1000 to 10000 nM; in assay [4] (E compounds, Table 17) it was 100 to 1000 nM.

Take `C[C@@H]1[C@H](NC(=O)c2ccc(C3CC3)cc2F)CCCN1c1cnc(C(N)=O)c(Nc2ccc(N3CCN(C)CC3)nc2)n1` [Example A-177, 5-[(2R,3R)-3-(4-cyclopropyl-2-fluorobenzamido)-2-methylpiperidin-1-yl]-3-{[6-(4-methylpiperazin-1-yl)pyridin-3-yl]amino}pyrazine-2-caoxamide]: the half-maximal inhibitory concentration (IC50) was at most 10 nM in assay [1] (Table 13, A compounds); 1000 to 10000 nM in assay [2] (setting [5]); 100 to 1000 nM in assay [3] (setting [5]); 100 to 1000 nM in assay [4] (setting [5]).

In the case of `COCCn1cc(Nc2nc(N3CCC[C@@H](NC(=O)c4ccc(C5CC5)cc4)[C@H]3C)cnc2C(N)=O)cn1` [Example A-186, 5-((2R,3R)-3-(4-cyclopropylbenzamido)-2-methylpiperidin-1-yl)-3-(1-(2-methoxylethyl)-1H-pyrazol-4-ylamino)pyrazine-2-carboxamide], the half-maximal inhibitory concentration (IC50) is at most 10 nM in assay [1] (Table 13, A compounds); 1000 to 10000 nM in assay [2] (setting [5]); 100 to 1000 nM in assay [3] (setting [5]); 100 to 1000 nM in assay [4] (setting [5]).

For the molecule `C[C@@H]1[C@H](NC(=O)c2ccc(C(C)(C)C)cc2)CCCN1c1cnc(C(N)=O)c(Nc2ccc(N3CCN(C)CC3)cc2)n1` [Example A-184, 5-[(2R,3R)-3-(4-tert-butylbenzamido)-2-methylpiperidin-1-yl]-3-{[4-(4-methylpiperazin-1-yl)phenyl]amino}pyrazine-2-carboxamide], the IC50 in assay [1] (Table 13, A compounds) is at most 10 nM; in assay [2] (setting [5]) it was 1000 to 10000 nM; in assay [3] (setting [5]) it was 1000 to 10000 nM; in assay [4] (setting [5]), 10 to 100 nM.

Take `CC(C)N1CCN(c2ccc(Nc3nc(N4CCC[C@@H](NC(=O)c5ccc(C6CC6)cc5F)[C@H]4C)cnc3C(N)=O)cc2)CC1` [Example A-149, 5-[(2R,3R)-3-(4-cyclopropyl-2-fluorobenzamido)-2-methylpiperidin-1-yl]-3-({4-[4-(propan-2-yl)piperazin-1-yl]phenyl}amino)pyrazine-2-carboxamide]: the IC50 in assay [1] (Table 13, A compounds) is at most 10 nM; in assay [2] (setting [5]), 100 to 1000 nM; in assay [3] (setting [5]), 10 to 100 nM; in assay [4] (setting [5]) it was 10 to 100 nM.

As for `C[C@@H]1[C@H](NC(=O)c2ccc(C(=O)N(C)C)cc2)CCCN1c1cnc(C(N)=O)c(Nc2cnn(C)c2)n1` [Example E-138, N1-((2R,3R)-1-(5-carbamoyl-6-((1-methyl-1H-pyrazol-4-yl)amino)pyrazin-2-yl)-2-methylpiperidin-3-yl)-N4,N4-dimethylterephthalamide], the 50% inhibitory concentration (IC50) in assay [1] (E compounds, Table 17) is at most 10 nM; in assay [2] (E compounds, Table 17), 100 to 1000 nM; in assay [3] (E compounds, Table 17), 10 to 100 nM; in assay [4] (E compounds, Table 17), at most 10 nM.

Take `C[C@@H]1[C@H](NC(=O)c2ccc(C3CC3)cc2Cl)CCCN1c1cnc(C(N)=O)c(Nc2ccc(N3CCN(C)CC3)cc2)n1` [Example A-180, 5-[(2R,3R)-3-(2-chloro-4-cyclopropylbenzamido)-2-methylpiperidin-1-yl]-3-{[4-(4-methylpiperazin-1-yl)phenyl]amino}pyrazine-2-carboxamide]: the IC50 in assay [1] (Table 13, A compounds) was at most 10 nM; in assay [2] (setting [5]) it was 100 to 1000 nM; in assay [3] (setting [5]), 100 to 1000 nM; in assay [4] (setting [5]) it was 10 to 100 nM.

As for `C=CC(=O)N1CCC[C@@H](Nc2nnc(C(N)=O)c(Nc3ccc(-c4ncco4)cc3)n2)C1` [Example E-40, (R)-3-(1-acryloylpiperidin-3-ylamino)-5-(4-(oxazol-2-yl)phenylamino)-1,2,4-triazine-6-carboxamide], the IC50 in assay [1] (E compounds, Table 17) was at most 10 nM; in assay [2] (E compounds, Table 17), at most 10 nM; in assay [3] (E compounds, Table 17) it was 100 to 1000 nM; in assay [4] (E compounds, Table 17) it was at most 10 nM.

In the case of `C[C@@H]1[C@H](NC(=O)c2ccc(C3CC3)cc2)CCCN1c1cnc(C(N)=O)c(Nc2cnn(C3CCN(C)CC3)c2)n1` [Example A-173], the half-maximal inhibitory concentration (IC50) in assay [1] (Table 13, A compounds) was at most 10 nM; in assay [2] (setting [5]), 100 to 1000 nM; in assay [3] (setting [5]) it was 10 to 100 nM; in assay [4] (setting [5]), 10 to 100 nM.

Broadly, the IC50 is the midpoint of a concentration-inhibition curve.

The record behind these values is US20210070748A1, “INHIBITORS OF BRUTONS TYROSINE KINASE” (Pharmacyclics LLC, priority 2015, published 2021).
